Experiment [1] addresses T1, FIKK8 (Plasmodium falciparum, UniProt C0H4R8).
T1 construct: gene PF3D7_0805700; recombinant FIKK8 kinase domain
As to the kind of experiment: biochemical. Set-up: ADP-Glo luminescence kinase assay, recombinant FIKK8 kinase domain, Po peptide substrate plus ATP, four-parameter IC50 fit. How it is done: Columns 6 and 18 of the microplates served as controls. Column 6 was a positive control (recombinant FIKK8 kinase domain + Po peptide ([…])[22] + ATP without compounds). Column 18 was a negative control (recombinant FIKK8 kinase domain + Po peptide − ATP). First, 3 µl kinase at 40 nM in kinase reaction buffer (20 mM MOPS, 10 mM magnesium chloride and 10 mM manganese chloride, pH 7.4 (Alfa Aesar)) was dispensed in each well using a Multidrop Combi Reagent dispenser (Thermo Fisher Scientific). Recombinant FIKK8 kinase domain was left to incubate in the presence of compounds for 15 min at room temperature. Then, 3 µl Po peptide + ATP at 20 µM each, diluted in kinase reaction buffer, was dispensed in each well except in column 18 in which 3 µl of peptide without ATP was dispensed. The kinase reaction was left to occur for 1 h and was stopped with 6 µl ADP-Glo reagent. Kinase activity was assessed after addition of 12 µl kinase detection reagent by measuring luminescence on a multimode microplate reader FLUOstar Omega (BMG Labtech).

The target in experiment [2] is T2, FIKK1 (Plasmodium falciparum, UniProt B9ZSH8).
T2 construct: gene PF3D7_0102600; recombinant kinase domain
Kind of experiment: ADP-Glo kinase assay, % inhibition heat map (n = […]). The experiment is classed as biochemical. (ADP-Glo turns the ADP formed in a reaction into a luminescent signal.)

The target of experiment [3] is T3, FIKK13 (Plasmodium falciparum, UniProt A0A143ZWL4).
T3 construct: gene PF3D7_1371700; recombinant kinase domain
Described as above. The experiment is classed as biochemical.

As a reminder, the IC50 is the point on the concentration scale where inhibition reaches its midpoint.

T1 sequence (C0H4R8 entry or part of it): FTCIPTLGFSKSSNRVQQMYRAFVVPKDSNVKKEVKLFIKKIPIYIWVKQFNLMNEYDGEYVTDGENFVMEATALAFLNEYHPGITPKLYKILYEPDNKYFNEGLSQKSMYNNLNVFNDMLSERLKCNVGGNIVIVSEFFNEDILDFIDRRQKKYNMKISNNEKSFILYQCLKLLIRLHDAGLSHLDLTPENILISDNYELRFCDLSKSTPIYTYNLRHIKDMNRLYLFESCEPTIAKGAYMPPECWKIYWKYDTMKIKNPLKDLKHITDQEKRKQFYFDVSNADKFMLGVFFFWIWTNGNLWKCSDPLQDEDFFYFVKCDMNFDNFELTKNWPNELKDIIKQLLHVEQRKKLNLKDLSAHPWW
T2 sequence (B9ZSH8 entry or part of it): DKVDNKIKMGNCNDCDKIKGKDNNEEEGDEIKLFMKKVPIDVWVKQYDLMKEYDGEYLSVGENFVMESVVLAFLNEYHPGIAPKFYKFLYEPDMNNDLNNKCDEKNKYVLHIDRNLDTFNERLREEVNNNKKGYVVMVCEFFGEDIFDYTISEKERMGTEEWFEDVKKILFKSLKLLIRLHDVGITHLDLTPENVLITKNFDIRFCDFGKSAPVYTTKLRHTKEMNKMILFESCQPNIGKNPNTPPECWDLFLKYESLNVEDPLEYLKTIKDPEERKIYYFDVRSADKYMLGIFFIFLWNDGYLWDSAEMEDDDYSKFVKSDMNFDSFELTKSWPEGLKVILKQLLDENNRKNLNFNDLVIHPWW
T3 sequence (A0A143ZWL4 entry or part of it): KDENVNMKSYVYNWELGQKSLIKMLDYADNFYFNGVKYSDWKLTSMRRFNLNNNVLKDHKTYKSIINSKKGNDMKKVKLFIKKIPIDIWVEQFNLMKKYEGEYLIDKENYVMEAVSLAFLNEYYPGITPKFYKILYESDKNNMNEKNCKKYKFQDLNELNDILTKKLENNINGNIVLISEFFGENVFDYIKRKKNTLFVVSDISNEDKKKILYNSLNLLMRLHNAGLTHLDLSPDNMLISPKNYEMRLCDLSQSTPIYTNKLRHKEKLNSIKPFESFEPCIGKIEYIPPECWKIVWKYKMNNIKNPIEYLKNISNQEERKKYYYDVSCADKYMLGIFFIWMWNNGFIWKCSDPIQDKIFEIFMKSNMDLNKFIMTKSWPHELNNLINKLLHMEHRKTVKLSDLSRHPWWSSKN

Take `CCN1CCC(CC(=O)Nc2n[nH]c3nc(-c4cccs4)c(Br)cc23)CC1` [SB-739245-AC]: in experiment [1], the IC50 was 238 ± 28 nM.

`CCN(CC)Cc1ccc(Nc2nccc(-c3cnn4ncccc34)n2)cc1` [GW780056X]: the IC50 in experiment [1] was 332 ± 88 nM.

As for `CN1CCC(n2cnc(-c3ccc(F)cc3)c2-c2ccnc(NCCO)n2)CC1` [SB-226879], the IC50 in experiment [1] came to 176 ± 20 nM.

For `O=c1[nH]ccc2nc(N[C@@H]3CCCNC3)nc(Nc3ccc(S(=O)(=O)N4CCOCC4)cc3)c12` [GSK2177277A], the IC50 in experiment [1] is 48 ± 4.4 nM.

Turning to `O=c1[nH]ccc2nc(N[C@@H]3CCNC3)nc(Nc3cc(Cl)cc(Cl)c3)c12` [GSK2188764A], in experiment [1], the IC50 is 60 ± 9.8 nM.

`COc1ccc(Nc2ncc(C#N)c(Nc3ccccc3C(N)=O)n2)cc1N1CCN(C)CC1` [GSK1558669A]: the IC50 in experiment [1] came out at 89 ± 37 nM.

As to `Cc1cccc(Nc2nc(N[C@H]3CCNC3)ncc2C(N)=O)c1` [GSK2197149A], in experiment [1], the IC50 was determined as 315 ± 52 nM.

Regarding `O=c1[nH]ccc2nc(N[C@@H]3CCNC3)nc(Nc3ccc4c(c3)S(=O)(=O)CC4)c12` [GSK2181306A], in experiment [1], the IC50 was 31 ± 1.6 nM.

With `CCNc1nccc(-c2c(-c3ccc(F)cc3)ncn2C2CCN(C)CC2)n1` [SB-226605], in experiment [1], the IC50 came to 98 ± 6.6 nM.

Take `O=C(Nc1n[nH]c2nnc(-c3cccnc3)cc12)C1CC1` [SB-675259-M]: the IC50 in experiment [1] amounted to 168 ± 21 nM.

Consider `Cc1cc(O)c2c(c1)C(=O)c1cc(O)cc(O)c1C2=O` [Emodin], for which the “ADP-Glo kinase assay, % inhibition heat map (n = 3)” value in experiment [2] and in experiment [3] was “showed potency against all PfFIKKs (Fig. 6d)” throughout.

For the compound `CN1CCC(n2cnc(-c3ccc(F)cc3)c2-c2ccnc(NC3CCNCC3)n2)CC1` [SB-229482], the IC50 in experiment [1] turned out to be 24 ± 1.7 nM.

Values taken from article PMC12137140, “The fast-evolving FIKK kinase family of Plasmodium falciparum can be inhibited by a single compound” (Nature Microbiology, 2025).
